Data set [1] can be described thus: Selectivity index, ratio of IC50 for rat L6 cells to IC50 for Leishmania donovani MHOM/SD/62/1S-CL2D axenic amastigotes. Format: toxicity, cell-based. The settings on record: read-out: Ratio IC50.
A further data set concerns Plasmodium falciparum. The data set is described as follows: Antiplasmodial activity after 48 hrs against chloroquine-resistant Plasmodium falciparum K1 by [3H]hypoxanthine uptake. Format: functional, organism-based.
Data set [2] is described as follows: Selectivity index, ratio of IC50 for rat L6 cells to IC50 for blood stream form of Trypanosoma brucei rhodesiense STIB900 trypomastigotes. The settings on record: read-out: Ratio IC50. Format: toxicity, cell-based.
The subject of another data set is Leishmania donovani. The data set is described as follows: Antileishmanial activity against Leishmania donovani MHOM/SD/62/1S-CL2D axenic amastigotes after 72 hrs by tetrazolium dye-based microplate reader method. Format: functional, organism-based.
Data set [3] can be described thus: Selectivity index, ratio of IC50 for rat L6 cells to IC50 for chloroquine-resistant Plasmodium falciparum K1. As to conditions: read-out: Ratio IC50. Type of data set: toxicity, cell-based.
For data set [4], the system named is Trypanosoma brucei rhodesiense. The data set is described as follows: Antitrypanosomal activity against blood stream form of Trypanosoma brucei rhodesiense STIB900 trypomastigotes after 70 hrs by alamar blue assay. Type of data set: functional, organism-based. As to conditions: STIB900, 70 h.
The subject of a further data set is L6. The data set is described as follows: Cytotoxicity against rat L6 cells after 70 hrs by alamar blue assay. Type of data set: cell-based. The settings on record: L6, 70 h. For orientation: The colour change of resazurin is a common sign of viable cells or microbes.
Data set [5] has as its system Trypanosoma brucei rhodesiense. The data set is described as follows: Ratio of pentamidine IC50 to compound IC50 for blood stream form of Trypanosoma brucei rhodesiense STIB900 trypomastigotes. Format: functional.
For data set [6], the system named is Trypanosoma brucei rhodesiense. As to the kind of experiment: Antitrypanosomal activity against Trypanosoma brucei rhodesiense STIB900 in mouse model of acute trypanosomiasis assessed as induction of cure at 20 mg/kg administered daily for 4 days. Type of data set: functional, organism-based. Further details: dose 20 mg/kg.
The subject of data set [7] is Trypanosoma brucei rhodesiense. As to the kind of experiment: Antitrypanosomal activity against Trypanosoma brucei rhodesiense STIB900 in mouse model of acute trypanosomiasis assessed as increase in survival time at 20 mg/kg administered daily for 4 days. Type of data set: functional, organism-based. Set-up: dose 20 mg/kg.

Calls of active or inactive are those of the source. The calls are words filed in the database; no cut-off is given here.

On to `c1ccc(OCCCCCCOc2cccc(-c3cc4cc(C5=NCCN5)ccc4o3)c2)cc1`, for which the selectivity ratio in data set [1] is 1; in [2], 26; in data set [3], 51. The IC50 (usually the concentration that inhibits the measured activity by half) with Plasmodium falciparum was determined as 49 nM; in the data set with Leishmania donovani, 1900 nM.

For `CC(C)NC(=N)c1ccc2oc(-c3cccc(OCCCCCCOc4ccccc4)c3)cc2c1`, the selectivity ratio in data set [1] was 1; in data set [2], 6; in [3], 40. The IC50 with Plasmodium falciparum came out at 183 nM; in data set [4] it was 1160 nM; in the data set with Leishmania donovani, 7000 nM; in the data set on L6 it was 7400 nM.

As for `N=C(N)c1ccc(OCCCOc2ccc(-c3cc4ccc(C(=N)N)cc4o3)cc2)cc1`, the “Ratio IC50” value in [5] is recorded as 8. Also, the result in [6] was inactive. Moreover, the result in data set [7] was Active. Also, the IC50 in data set [4] was determined as 25 nM; in the data set on Leishmania donovani it was 780 nM; with L6 it was 8600 nM.

(Values after ChEMBL document CHEMBL1153541 (J Med Chem, 2009).)
